In US6706663B2, “Herbicidal 3-heterocyclic substituted benzisothiazole and benzisoxazole compounds” (Wyeth, priority 2000, dated 2004):

Tests used:
[1] = test system: ABUTH (Abutilon theophrasti); test: Postemergence herbicidal evaluation; type: in vivo, Medic.; settings: postemergence
In short: (§1)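 Visual 0–9 injury scores versus control plants, covering stand, vigour, malformation, size, chlorosis and general appearance, taken four to five weeks post-spray and averaged over replicate tests. Plants were sprayed at roughly two weeks old and held on greenhouse benches.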

[2] = test system: AMBEL (Ambrosia artemisifolia); test: Postemergence herbicidal evaluation; type: in vivo, L.; settings: postemergence
In short: as §1

[3] = test system: CASOB (Cassia obtusifolia); test: Postemergence herbicidal evaluation; type: in vivo, L.; settings: postemergence
In short: as §1

[4] = test system: CHEAL (Chenopodium album); test: Postemergence herbicidal evaluation; type: in vivo, L.; settings: postemergence
In short: as §1

GALAP (Galium aparine) [5] = test: Postemergence herbicidal evaluation; type: in vivo; settings: postemergence
In short: as §1

[6] = test system: IPOHE (Ipomoea hederacea); test: Postemergence herbicidal evaluation; type: in vivo, (L.) Jacq.; settings: postemergence
In short: as §1

[7] = test system: GLXMAW (Soybean, Williams); test: Postemergence herbicidal evaluation; type: in vivo, Glycine max, (L.) Merr. cv Williams; settings: postemergence
In short: as §1

ORYSAT (Rice, Tebonnet) [8] = test: Postemergence herbicidal evaluation; type: in vivo, Oryza sativa, (L.) Tebonnet; settings: postemergence
In short: as §1

ZEAMX (Corn, Field) = test: Postemergence herbicidal evaluation; type: in vivo, Zea mays, L.; settings: postemergence
In short: as §1

GALAP (Galium aparine) [9] = test: Preemergence herbicidal evaluation; type: in vivo; settings: rated 4-5 weeks after treatment
In short: (§2)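 Visual 0-9 rating versus untreated control, taken four to five weeks post-treatment, scoring stand, vigor, malformation, size, chlorosis and overall appearance. Compound applied as aqueous acetone spray to freshly seeded soil cups, then kept under standard greenhouse care.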

[10] = test system: ECHCG (Echinochloa crus-galli); test: Preemergence herbicidal evaluation; type: in vivo, (L.) Beau; settings: rated 4-5 weeks after treatment
In short: as §2

SETVI (Setaria viridis) = test: Preemergence herbicidal evaluation; type: in vivo, (L.) Beau; settings: rated 4-5 weeks after treatment
In short: as §2

ORYSAT (Rice, Tebonnet) [11] = test: Preemergence herbicidal evaluation; type: in vivo, Oryza sativa, (L.) Tebonnet; settings: rated 4-5 weeks after treatment
[12] = test system: TRZAWR (Wheat, Winter, cv Riband); test: Preemergence herbicidal evaluation; type: in vivo, Triticum aestivum; settings: rated 4-5 weeks after treatment
In short: as §2

[13] = test system: ECHORC (Echinochloa oryzoides); test: Flooded paddy, postemergence weed control; type: in vivo, Echinochloa oryzoides (Ard.) Fritsch.; settings: postemergence weeds, rated 3-4 weeks after treatment
In short: (§3)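 Weeds 3 to 5 cm tall plus rice seedlings at the 1.5 to 2.5 leaf stage were flooded, water held 1.5 to 3 cm above soil. Compounds in 50/50 v/v aqueous/acetone went directly into flood water at about 0.0320 to 0.2500 kg/ha. Greenhouse, 3 to 4 weeks; visual 0-9 rating versus control.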

CYPIR (Cyperus iria) = test: Flooded paddy, postemergence weed control; type: in vivo; settings: postemergence weeds, rated 3-4 weeks after treatment
In short: as §3

[14] = test system: CYPSE (Cyperus serotinus); test: Flooded paddy, postemergence weed control; type: in vivo, Rottb.; settings: postemergence weeds, rated 3-4 weeks after treatment
In short: as §3

[15] = test system: MOOVA (Monochoria vaginalis); test: Flooded paddy, postemergence weed control; type: in vivo, Presl.; settings: postemergence weeds, rated 3-4 weeks after treatment
In short: as §3

[16] = test system: SAGPY (Sagittaria pygmaea); test: Flooded paddy, postemergence weed control; type: in vivo, L.; settings: postemergence weeds, rated 3-4 weeks after treatment
In short: as §3

ORYSAT (Rice, Tebonnet) [17] = test: Flooded paddy, post-transplant and postemergence rice tolerance; type: in vivo, Oryza sativa, (L.) Tebonnet; settings: post-transplant rice, rated 3-4 weeks after treatment
In short: as §3

Cn1c(C(F)(F)F)cc(=O)n(-c2ccc3snc(-c4nccs4)c3c2)c1=O [Compound 53, 1-methyl-3-[3-(2-thiazolyl)-1,2-benzisothiazol-5-yl]-6-(trifluoromethyl)uracil]
ABUTH herbicidal rating ([1]; rate 0.0320 kg/ha): 9.0
ABUTH herbicidal rating ([1]; rate 0.0620 kg/ha): 9.0
ABUTH herbicidal rating ([1]; rate 0.1250 kg/ha): 9.0
AMBEL herbicidal rating ([2]; rate 0.0320 kg/ha): 6.5
AMBEL herbicidal rating ([2]; rate 0.0620 kg/ha): 9.0
AMBEL herbicidal rating ([2]; rate 0.1250 kg/ha): 9.0
CASOB herbicidal rating ([3]; rate 0.0320 kg/ha): 2.0
CASOB herbicidal rating ([3]; rate 0.0620 kg/ha): 4.0
CASOB herbicidal rating ([3]; rate 0.1250 kg/ha): 3.0
CHEAL herbicidal rating ([4]; rate 0.0320 kg/ha): 4.5
CHEAL herbicidal rating ([4]; rate 0.0620 kg/ha): 7.0
CHEAL herbicidal rating ([4]; rate 0.1250 kg/ha): 9.0
GALAP herbicidal rating (GALAP (Galium aparine) [5]; rate 0.0320 kg/ha): 2.5
GALAP herbicidal rating (GALAP (Galium aparine) [5]; rate 0.0620 kg/ha): 3.0
GALAP herbicidal rating (GALAP (Galium aparine) [5]; rate 0.1250 kg/ha): 7.0
IPOHE herbicidal rating ([6]; rate 0.0320 kg/ha): 8.0
IPOHE herbicidal rating ([6]; rate 0.0620 kg/ha): 9.0
IPOHE herbicidal rating ([6]; rate 0.1250 kg/ha): 9.0
GLXMAW herbicidal rating ([7]; rate 0.0320 kg/ha): 6.8
GLXMAW herbicidal rating ([7]; rate 0.0620 kg/ha): 8.3
GLXMAW herbicidal rating ([7]; rate 0.1250 kg/ha): 8.0
ORYSAT herbicidal rating (ORYSAT (Rice, Tebonnet) [8]; rate 0.0320 kg/ha): 3.0
ORYSAT herbicidal rating (ORYSAT (Rice, Tebonnet) [8]; rate 0.0620 kg/ha): 3.5
ORYSAT herbicidal rating (ORYSAT (Rice, Tebonnet) [8]; rate 0.1250 kg/ha): 3.0
ZEAMX herbicidal rating (ZEAMX (Corn, Field); rate 0.0320 kg/ha): 4.5
ZEAMX herbicidal rating (ZEAMX (Corn, Field); rate 0.0620 kg/ha): 5.0
ZEAMX herbicidal rating (ZEAMX (Corn, Field); rate 0.1250 kg/ha): 5.5
Preemergence herbicidal rating GALAP (GALAP (Galium aparine) [9]; Rate 0.0620 kg/ha): 8.0
Preemergence herbicidal rating GALAP (GALAP (Galium aparine) [9]; Rate 0.1250 kg/ha): 8.0
Preemergence herbicidal rating GALAP (GALAP (Galium aparine) [9]; Rate 0.2500 kg/ha): 9.0
Preemergence herbicidal rating ECHCG ([10]; Rate 0.0620 kg/ha): 2.0
Preemergence herbicidal rating ECHCG ([10]; Rate 0.1250 kg/ha): 4.5
Preemergence herbicidal rating ECHCG ([10]; Rate 0.2500 kg/ha): 8.5
Preemergence herbicidal rating SETVI (SETVI (Setaria viridis); Rate 0.0620 kg/ha): 9.0
Preemergence herbicidal rating SETVI (SETVI (Setaria viridis); Rate 0.1250 kg/ha): 9.0
Preemergence herbicidal rating SETVI (SETVI (Setaria viridis); Rate 0.2500 kg/ha): 9.0
Preemergence herbicidal rating ORYSAT (ORYSAT (Rice, Tebonnet) [11]; Rate 0.0620 kg/ha): 1.0
Preemergence herbicidal rating ORYSAT (ORYSAT (Rice, Tebonnet) [11]; Rate 0.1250 kg/ha): 3.0
Preemergence herbicidal rating ORYSAT (ORYSAT (Rice, Tebonnet) [11]; Rate 0.2500 kg/ha): 5.0
Preemergence herbicidal rating TRZAWR ([12]; Rate 0.0620 kg/ha): 1.0
Preemergence herbicidal rating TRZAWR ([12]; Rate 0.1250 kg/ha): 3.5
Preemergence herbicidal rating TRZAWR ([12]; Rate 0.2500 kg/ha): 5.0
herbicide rating (0-9) ECHORC ([13]; 0.0320 kg/ha into flood water): 2.0
herbicide rating (0-9) ECHORC ([13]; 0.0620 kg/ha into flood water): 7.0
herbicide rating (0-9) ECHORC ([13]; 0.1250 kg/ha into flood water): 8.0
herbicide rating (0-9) CYPIR (CYPIR (Cyperus iria); 0.0320 kg/ha into flood water): 0.0
herbicide rating (0-9) CYPIR (CYPIR (Cyperus iria); 0.1250 kg/ha into flood water): 7.0
herbicide rating (0-9) CYPSE ([14]; 0.0320 kg/ha into flood water): 0.0
herbicide rating (0-9) CYPSE ([14]; 0.0620 kg/ha into flood water): 8.0
herbicide rating (0-9) CYPSE ([14]; 0.1250 kg/ha into flood water): 8.0
herbicide rating (0-9) MOOVA ([15]; 0.0320 kg/ha into flood water): 0.0
herbicide rating (0-9) MOOVA ([15]; 0.0620 kg/ha into flood water): 0.0
herbicide rating (0-9) MOOVA ([15]; 0.1250 kg/ha into flood water): 2.0
herbicide rating (0-9) SAGPY ([16]; 0.0320 kg/ha into flood water): 0.0
herbicide rating (0-9) SAGPY ([16]; 0.0620 kg/ha into flood water): 0.0
herbicide rating (0-9) SAGPY ([16]; 0.1250 kg/ha into flood water): 0.0
herbicide rating (0-9) ORYSAT (rice tolerance) (ORYSAT (Rice, Tebonnet) [17]; 0.0320 kg/ha into flood water): 2.0
herbicide rating (0-9) ORYSAT (rice tolerance) (ORYSAT (Rice, Tebonnet) [17]; 0.0620 kg/ha into flood water): 4.0
herbicide rating (0-9) ORYSAT (rice tolerance) (ORYSAT (Rice, Tebonnet) [17]; 0.1250 kg/ha into flood water): 6.0

Cn1c(C(F)(F)F)cc(=O)n(-c2cc3c(C4OCCO4)nsc3cc2F)c1=O [Compound 61, 3-[3-(1,3-dioxolan-2-yl)-6-fluoro-1,2-benzisothiazol-5-yl]-1-methyl-6-(trifluoromethyl)uracil]
ABUTH herbicidal rating ([1]; rate 0.0320 kg/ha): 9.0
ABUTH herbicidal rating ([1]; rate 0.0620 kg/ha): 9.0
AMBEL herbicidal rating ([2]; rate 0.0320 kg/ha): 9.0
AMBEL herbicidal rating ([2]; rate 0.0620 kg/ha): 9.0
CASOB herbicidal rating ([3]; rate 0.0320 kg/ha): 9.0
CHEAL herbicidal rating ([4]; rate 0.0320 kg/ha): 9.0
CHEAL herbicidal rating ([4]; rate 0.0620 kg/ha): 9.0
GALAP herbicidal rating (GALAP (Galium aparine) [5]; rate 0.0320 kg/ha): 9.0
IPOHE herbicidal rating ([6]; rate 0.0320 kg/ha): 9.0
IPOHE herbicidal rating ([6]; rate 0.0620 kg/ha): 9.0
GLXMAW herbicidal rating ([7]; rate 0.0320 kg/ha): 9.0
ORYSAT herbicidal rating (ORYSAT (Rice, Tebonnet) [8]; rate 0.0320 kg/ha): 5.5
ZEAMX herbicidal rating (ZEAMX (Corn, Field); rate 0.0320 kg/ha): 5.5
ZEAMX herbicidal rating (ZEAMX (Corn, Field); rate 0.0620 kg/ha): 5.5
Preemergence herbicidal rating GALAP (GALAP (Galium aparine) [9]; Rate 0.0002 kg/ha): 0.0
Preemergence herbicidal rating GALAP (GALAP (Galium aparine) [9]; Rate 0.0160 kg/ha): 8.5
Preemergence herbicidal rating GALAP (GALAP (Galium aparine) [9]; Rate 0.0320 kg/ha): 9.0
Preemergence herbicidal rating ECHCG ([10]; Rate 0.0002 kg/ha): 0.0
Preemergence herbicidal rating ECHCG ([10]; Rate 0.0160 kg/ha): 9.0
Preemergence herbicidal rating ECHCG ([10]; Rate 0.0320 kg/ha): 9.0
Preemergence herbicidal rating SETVI (SETVI (Setaria viridis); Rate 0.0002 kg/ha): 0.0
Preemergence herbicidal rating SETVI (SETVI (Setaria viridis); Rate 0.0160 kg/ha): 9.0
Preemergence herbicidal rating SETVI (SETVI (Setaria viridis); Rate 0.0320 kg/ha): 9.0
Preemergence herbicidal rating ORYSAT (ORYSAT (Rice, Tebonnet) [11]; Rate 0.0002 kg/ha): 0.0
Preemergence herbicidal rating ORYSAT (ORYSAT (Rice, Tebonnet) [11]; Rate 0.0160 kg/ha): 8.7
Preemergence herbicidal rating ORYSAT (ORYSAT (Rice, Tebonnet) [11]; Rate 0.0320 kg/ha): 9.0
Preemergence herbicidal rating TRZAWR ([12]; Rate 0.0002 kg/ha): 0.0
Preemergence herbicidal rating TRZAWR ([12]; Rate 0.0160 kg/ha): 8.5
Preemergence herbicidal rating TRZAWR ([12]; Rate 0.0320 kg/ha): 9.0
herbicide rating (0-9) ECHORC ([13]; 0.0320 kg/ha into flood water): 9.0
herbicide rating (0-9) ECHORC ([13]; 0.0620 kg/ha into flood water): 9.0
herbicide rating (0-9) ECHORC ([13]; 0.1250 kg/ha into flood water): 9.0
herbicide rating (0-9) CYPIR (CYPIR (Cyperus iria); 0.0320 kg/ha into flood water): 9.0
herbicide rating (0-9) CYPIR (CYPIR (Cyperus iria); 0.0620 kg/ha into flood water): 9.0
herbicide rating (0-9) CYPIR (CYPIR (Cyperus iria); 0.1250 kg/ha into flood water): 9.0
herbicide rating (0-9) CYPSE ([14]; 0.0320 kg/ha into flood water): 9.0
herbicide rating (0-9) CYPSE ([14]; 0.0620 kg/ha into flood water): 9.0
herbicide rating (0-9) CYPSE ([14]; 0.1250 kg/ha into flood water): 9.0
herbicide rating (0-9) MOOVA ([15]; 0.0320 kg/ha into flood water): 9.0
herbicide rating (0-9) MOOVA ([15]; 0.0620 kg/ha into flood water): 9.0
herbicide rating (0-9) MOOVA ([15]; 0.1250 kg/ha into flood water): 9.0
herbicide rating (0-9) SAGPY ([16]; 0.0320 kg/ha into flood water): 6.0
herbicide rating (0-9) SAGPY ([16]; 0.0620 kg/ha into flood water): 8.0
herbicide rating (0-9) SAGPY ([16]; 0.1250 kg/ha into flood water): 9.0
herbicide rating (0-9) ORYSAT (rice tolerance) (ORYSAT (Rice, Tebonnet) [17]; 0.0320 kg/ha into flood water): 9.0
herbicide rating (0-9) ORYSAT (rice tolerance) (ORYSAT (Rice, Tebonnet) [17]; 0.0620 kg/ha into flood water): 9.0
herbicide rating (0-9) ORYSAT (rice tolerance) (ORYSAT (Rice, Tebonnet) [17]; 0.1250 kg/ha into flood water): 9.0
